Assay results: ChEMBL document CHEMBL1914414, “Selective cholinesterase inhibition by lanostane triterpenes from fruiting bodies of Ganoderma lucidum” (Bioorg Med Chem Lett, 2011)
pIC50: −log10 of the molar value.

How the values were obtained:
[1] = target: Cholinesterase (Homo sapiens, UniProt P06276); test: Inhibition of BChE assessed as hydrolysis of butrylcholine preincubated for 15 mins measured after 15 mins by colorimetric Ellman assay
[2] = target: Acetylcholinesterase (Homo sapiens, UniProt P22303); test: Inhibition of AChE assessed as hydrolysis of acetylcholine preincubated for 15 mins measured after 15 mins by colorimetric Ellman assay
Chain of Acetylcholinesterase (P22303 whole entry): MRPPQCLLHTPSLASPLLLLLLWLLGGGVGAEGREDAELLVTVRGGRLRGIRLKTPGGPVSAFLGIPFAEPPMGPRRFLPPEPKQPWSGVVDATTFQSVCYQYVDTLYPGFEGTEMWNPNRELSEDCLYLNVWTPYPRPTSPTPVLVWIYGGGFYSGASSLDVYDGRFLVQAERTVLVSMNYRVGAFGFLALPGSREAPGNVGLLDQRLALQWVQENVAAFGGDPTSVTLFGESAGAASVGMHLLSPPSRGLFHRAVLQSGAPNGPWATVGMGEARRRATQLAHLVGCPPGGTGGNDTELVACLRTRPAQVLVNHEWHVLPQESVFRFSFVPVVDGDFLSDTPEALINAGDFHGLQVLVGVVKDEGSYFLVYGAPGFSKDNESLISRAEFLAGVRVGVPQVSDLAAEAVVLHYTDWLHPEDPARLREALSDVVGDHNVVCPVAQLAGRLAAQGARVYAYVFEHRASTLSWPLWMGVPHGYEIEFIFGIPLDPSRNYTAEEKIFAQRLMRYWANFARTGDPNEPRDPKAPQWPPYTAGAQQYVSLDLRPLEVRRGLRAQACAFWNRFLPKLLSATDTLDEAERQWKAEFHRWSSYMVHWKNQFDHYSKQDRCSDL

Chain of Cholinesterase (P06276 whole entry): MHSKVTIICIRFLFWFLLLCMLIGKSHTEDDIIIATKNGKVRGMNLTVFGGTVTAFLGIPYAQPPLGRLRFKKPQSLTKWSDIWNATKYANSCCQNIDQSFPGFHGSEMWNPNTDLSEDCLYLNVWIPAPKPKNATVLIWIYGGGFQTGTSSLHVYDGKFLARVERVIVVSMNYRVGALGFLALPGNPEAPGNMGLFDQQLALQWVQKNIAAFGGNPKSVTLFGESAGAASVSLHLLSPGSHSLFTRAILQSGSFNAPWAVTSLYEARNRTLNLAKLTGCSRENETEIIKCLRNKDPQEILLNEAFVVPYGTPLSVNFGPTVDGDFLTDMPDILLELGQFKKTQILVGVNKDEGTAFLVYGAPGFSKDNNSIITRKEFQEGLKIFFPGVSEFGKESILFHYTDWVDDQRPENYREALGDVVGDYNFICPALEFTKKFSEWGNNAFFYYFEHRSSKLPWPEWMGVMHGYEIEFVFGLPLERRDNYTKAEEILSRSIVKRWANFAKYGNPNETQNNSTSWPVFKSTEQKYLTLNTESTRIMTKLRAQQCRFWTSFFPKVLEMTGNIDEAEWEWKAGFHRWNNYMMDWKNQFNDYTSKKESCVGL

SMILES	pIC50 [1]	pIC50 [2]
C/C(=C\CC[C@@H](C)[C@H]1CC[C@@]2(C)C3=CC[C@H]4C(C)(C)[C@@H](O)CC[C@]4(C)C3=CC[C@]12C)CO [GANODEROL B]	< 3.70	4.57
C/C(=C\CC[C@@H](C)[C@H]1CC[C@@]2(C)C3=CC[C@H]4C(C)(C)[C@@H](O)CC[C@]4(C)C3=CC[C@]12C)C(=O)O [GANODERIC ACID Y]	< 3.70	4.68
C/C(=C\CC[C@@H](C)[C@H]1CC[C@@]2(C)C3=C(CC[C@]12C)[C@@]1(C)CC[C@H](O)C(C)(C)[C@@H]1CC3=O)CO [LUCIDADIOL]	3.81	4.51
CCCCOC(=O)CC[C@@H](C)[C@H]1CC[C@@]2(C)C3=C(C(=O)C[C@]12C)[C@@]1(C)CC[C@H](O)C(C)(C)[C@@H]1C[C@@H]3O	< 3.70	4.94
CCCCOC(=O)C(C)CC(=O)C[C@@H](C)[C@H]1CC(=O)[C@@]2(C)C3=C(C(=O)[C@@H](OC(C)=O)[C@]12C)[C@@]1(C)CC[C@H](O)C(C)(C)[C@@H]1CC3=O (some centres undefined)	< 3.70	5.03
CC(CC(=O)C[C@@H](C)[C@H]1C[C@H](O)[C@@]2(C)C3=C(C(=O)C[C@]12C)[C@@]1(C)CCC(=O)C(C)(C)[C@@H]1CC3)C(=O)O (some centres undefined) [GANOLUCIDIC ACID A]	< 3.70	4.64
C[C@H](CC[C@@H](O)C(C)(C)O)[C@H]1CC[C@@]2(C)C3=CC[C@H]4C(C)(C)C(=O)CC[C@]4(C)C3=CC[C@]12C [GANODERMANONDIOL]	< 3.70	4.60
CCCCOC(=O)CC[C@@H](C)[C@H]1CC[C@@]2(C)C3=C(C(=O)C[C@]12C)[C@@]1(C)CCC(=O)C(C)(C)[C@@H]1C[C@@H]3O	< 3.70	4.91
C[C@H](CC[C@H](O)[C@](C)(O)CO)[C@H]1CC[C@@]2(C)C3=CC[C@H]4C(C)(C)C(=O)CC[C@]4(C)C3=CC[C@]12C [GANODERMANONTRIOL]	< 3.70	4.65
COC(=O)C(C)CC(=O)C[C@@H](C)[C@H]1C[C@H](O)[C@@]2(C)C3=C(C(=O)C[C@]12C)[C@@]1(C)CCC(=O)C(C)(C)[C@@H]1C[C@@H]3O (some centres undefined) [METHYL GANODERATE A]	< 3.70	4.52
COC(=O)CC[C@@H](C)[C@H]1CC(=O)[C@@]2(C)C3=C(C(=O)[C@@H](OC(C)=O)[C@]12C)[C@@]1(C)CC[C@H](O)C(C)(C)[C@@H]1CC3=O [METHYL LUCIDENATE E2]	< 3.70	4.77
C[C@H](CCC(=O)O)[C@H]1CC(=O)[C@@]2(C)C3=C(C(=O)C[C@]12C)[C@@]1(C)CC[C@H](O)C(C)(C)[C@@H]1C[C@@H]3O [LUCIDENIC ACID N]	3.73	4.59
C[C@H](CC(=O)C[C@@H](C)[C@H]1CC(=O)[C@@]2(C)C3=C(C(=O)C[C@]12C)[C@@]1(C)CCC(=O)C(C)(C)[C@@H]1CC3=O)C(=O)O [GANODERIC ACID E]	< 3.70	4.74
C[C@H](CCC(=O)O)[C@H]1CC(=O)[C@@]2(C)C3=C(C(=O)C[C@]12C)[C@@]1(C)CCC(=O)C(C)(C)[C@@H]1C[C@@H]3O [LUCIDENIC ACID A]	< 3.70	4.62
CC(CC(=O)C[C@@H](C)[C@H]1CC(=O)[C@@]2(C)C3=C(C(=O)C[C@]12C)[C@@]1(C)CC[C@H](O)C(C)(C)[C@@H]1C[C@@H]3O)C(=O)O (some centres undefined) [GANODERIC ACID B]	< 3.70	4.65
COC(=O)[C@H](C)CC(=O)C[C@@H](C)[C@H]1C[C@@H]2OC(C)(C)O[C@H]3C[C@H]4C(C)(C)C(=O)CC[C@]4(C)C4=C3[C@@]2(C)[C@]1(C)CC4=O [METHYL GANODERATE A ACETONIDE]	< 3.70	4.74
C[C@H](CCC=C(CO)CO)[C@H]1CC[C@@]2(C)C3=CC[C@H]4C(C)(C)C(=O)CC[C@]4(C)C3=CC[C@]12C [GANODERIOL F]	< 3.70	4.66
